Measured values reported in US20210106650A1, “MICROBICIDAL COMPOSITIONS AND METHODS FOR TREATMENT OF VIRAL INFECTIONS” (University of Louisville Research Foundation, Inc., priority 2015, published 2021).
Converted amounts (≈) assume the structure as drawn. Structures can show the parent of a compound that is named as a salt. Where two headings read alike, the source gives them in different places.

Columns and labels:
[1] = test system: HIV-1; experiment: Env-pseudotyped virus infectivity assay of TDF EFs in TZM-bl cells; type: cell-based; settings: EFs given 1 and 24 hr before infection
Description: A reporter gene expression Env-pseudotyped virus infectivity assay was used, as described previously, to measure the HIV-1 antiviral activity of the TDF PLGA and PLCL EFs. Antiviral activity was measured as a reduction in firefly Luciferase (Luc) reporter gene expression after administration of different EF concentrations 1 and 24 hr before a single round of infection in TZM-bl cells (i.e., the engineered HeLa cell clone that stably expresses CD4, CCR5, and CXCR4 receptors and contains HIV-1 Tat-regulated reporter genes for firefly luciferase and B-galactosidase). One set of 8 control wells received only cells plus virus (virus control), and another set of 8 wells received cells only (background control). After 48 hr incubation, culture medium was removed from each well, an equal volume of Bright-Glo™ reagent was added, and luminescence was measured. The EC50 was determined as the TDF-EF concentration that caused a 50% reduction in RLU relative to virus control wells after subtraction of background RLU (FIG. 14).

[2] = test system: HSV-2; experiment: HSV-2 plaque assay in Vero E6 cells with EF eluants; type: cell-based
Description: Initially, experiments were undertaken to determine the in vitro efficacy of unmodified EFs that encapsulated antivirals (ACV and TDF) or are surface-modified with GRFT, against HSV-2 infection. […] The top row of each plate contained cells that were incubated with blank PLGA or PLCL EFs. […] After infection, cells were incubated with IgG to neutralize free HSV-2, and EF eluants were administered to Vero E6 cells. Appropriate controls of: [no treatment/no virus], [no treatment/virus], [blank PLGA or PLCL EFs, virus], and [free ACV, virus] were conducted. […] Similarly, fibers were assessed after 28 days to ensure bioactivity after one month in SVF. […] Only one of the three IC50 curves is shown for each in FIG. 13 for purposes of brevity.

[3] = test system: HIV-1 pseudovirus (CCR5-using clade A strain Q769.h5); experiment: Env-pseudotyped virus infectivity assay in TZM-bl cells (luciferase); type: cell-based; settings: similar administration durations
Description: Materials. Carboxyl-terminated 50:50 poly(lactic-co-glycolic acid) (PLGA, 0.55-0.75 dL/g, 31-57 k MW) was purchased from Lactel Absorbable Polymers (Cupertino, Calif.). Dichloromethane (DCM), dimethyl sulfoxide (DMSO), and the MTT assay kit were obtained from Sigma Aldrich (St Louis, Mo.). 1,1,1,3,3,3-hexafluoro-2-propanol (HFIP) was obtained from Fisher Scientific (Pittsburgh, Pa.). GRFT (MW 12.7 kDa) was produced in Nicotiana benthamiana as previously reported. Fetal bovine serum (FBS) and antibiotics (penicillin/streptomycin) were purchased from VWR. Dulbecco's modified Eagle's medium (DMEM) and keratinocyte serum-free medium were purchased from Invitrogen. The EDC-NHS and enzyme-linked immunosorbent assay (ELISA) kits were purchased from ThermoFisher. Simulated vaginal fluid (SVF) was prepared as described previously. […]
Cell lines. […] Vaginal keratinocyte, VK2/E6E7 (VK2); ectocervical, Ect1/E6E7 (Ect1); and endocervical, End1/E6E7 (End1) cell lines, obtained from ATCC, were evaluated in cytotoxicity experiments. […]
In vitro antiviral activity of GRFT-EFs. […] The anti-HIV activity of the GRFT-EFs was measured as a reduction in firefly luciferase (Luc) reporter gene expression in the presence of GRFT-EFs compared to unmodified EFs after a single round of infection in TZM-bl cells. […]

[4] = test system: HIV-1BaL; experiment: HIV-1 infection of polarized ectocervical tissue explants; type: cell-based, human
[5] = test system: HIV-1 pseudovirus (CCR5-using clade A strain Q769.h5); settings: same virus strain (Q769.h5); cited from earlier work
[6] = test system: HIV-1 isolates; settings: most HIV-1 isolates; cited from earlier work
[7] = test system: HSV-2; settings: in vitro; read-out: cell-dependent EC50; cited from earlier work
[8] = test system: HSV-2; settings: in vivo; cited from earlier work
[9] = test system: HIV-1-enveloped pseudovirus; settings: subcutaneous administration in mice; cited from earlier work

Compound: CC(C)OC(=O)OCOP(=O)(CO[C@H](C)Cn1cnc2c(N)ncnc21)OCOC(=O)OC(C)C [free TDF, tenofovir disoproxil fumarate]
- protection against HIV-1 [1]: complete protection against HIV-1

Compound: Nc1nc2c(ncn2COCCO)c(=O)[nH]1 [free ACV, acyclovir]
- IC50 ([2]; Human alphaherpesvirus 2, Vero C1008, 72 h, fiber eluant collected after 3 days, read-out: average IC50): 0.287 µg/mL (≈ 1.27 µM)
- IC50 ([2]; Human alphaherpesvirus 2, Vero C1008, 672 h, after 28 days in SVF, read-out: IC50): 0.293 µg/mL (≈ 1.3 µM)
- IC50 ([2]; Human alphaherpesvirus 2, Vero C1008, eluant released between 21 and 28 days, read-out: IC50): 0.293 µg/mL (≈ 1.3 µM)

Compound: griffithsin [free GRFT]
- IC50 of free GRFT [3]: 233±2.7 ng GRFT/mL
- block of HIV-1 infection in ectocervical explants [4]: blocks HIV-1 infection
- concentration down to which HIV-1 infection was blocked ([4]; ectocervical tissue, 10^4 TCID50 HIV-1BaL overnight, 21 days culture): 10 µM
- previous literature measurement for free GRFT [5]: 157 ng/mL
- in vitro inhibitory activity (EC50) [6]: mid-pM to low-nM range
- EC50 [7]: 2.3 to 143 µM
- HSV-2 cell entry [8]: modestly inhibited
- HSV-2 cell-to-cell spread [8]: completely inhibiting
- antiviral activity of serum from treated animals [9]: retained antiviral activity
